# According to patent publication US20050064470A1, “High throughput screening methods for identifying RNA binding compounds” (priority 2003, published 2005):
# Experiments:
# wild-type TAR RNA = experiment: Fluorescence polarization anisotropy (FPA) binding to fluorescein-labeled wild-type TAR RNA; design: species or system HIV-1; settings: for Kd / specificity for wild-type TAR over bulgeless TAR (in words) / affinity for TAR RNA (in words): FPA; for Kd: 20 mM KCl, fluorescein-tagged wild-type TAR RNA, room temperature, read-out: Kd wt TAR; for specificity for wild-type TAR over bulgeless TAR (in words): wild-type vs bulge-deleted TAR; for Binding Specificity (Kd (mutTAR)/Kd (wtTAR)): ratio of Kd for bulge-deleted TAR to Kd for wild-type TAR, in text as fold decrease of affinity
# Method: (§1) β-Peptide and mutant β-peptide binding affinities to TAR RNA were measured by fluorescence anisotropy method on a PTI (Photon Technology International) fluorescence spectrophotometer. A T-format setup based on two emission channels was used. The intensities of the parallel and perpendicular components simultaneously were obtained in one measurement using two separate detectors. The excitation side is a motorized Glan-Thompson polarizer and emission sides are two film polarizers placed in vertical and horizontal orientation, respectively. The anisotropy can be calculated from equation 1, [formula] • where III and I⊥ are fluorescence intensities observed when the emission polarizer is oriented parallel and perpendicular to the direction of the polarized excitation, respectively.
# (§2) The fluorescein-labeled TAR RNA (F-TAR, either wt TAR or bulge-less TAR, see FIG. 1) was excited at 490 nm and two polarized emissions were monitored at 512 nm. The slits were set at 8 nm for both excitation and emission light. The integration time was 20 seconds. All data were measured in a Sub-Micro cuvette (Starna Cell, Inc.) with a starting volume of 160 μL. Each addition of β-peptide/mutant β-peptide was followed by one-minute equilibration before the fluorescence signal was recorded. All experiments were done at room temperature and in a TKT buffer (TKT: 50 mM Tris-HCl, pH=7.4, 20 mM KCl and 0.02% Tween20). The initial concentration of F-TAR was around 25 nM. The stock concentration of β-peptide/mutant β-peptide for titration was 2 μM. The experiment was repeated three times independently. For every single point, five measurements were made and their average anisotropy value was used for calculation of the KD.
# (§3) The binding dissociation constant (KD) is determined by fitting the plot of anisotropy of F-TAR versus the concentration of the β-peptide using equation 3, [formula] • where A is the relative fluorescence anisotropy of dye-labeled TAR RNA. The capacity for binding, Cap, is the maximum binding ability of a small molecule. C is the total concentration of β-peptide added. a is a correction factor.
# [1] = target: bulge-deleted (mut) TAR RNA; experiment: Fluorescence polarization anisotropy (FPA) binding to fluorescein-labeled bulge-deleted TAR RNA; design: species or system HIV-1; settings: for Kd: FPA, 20 mM KCl, fluorescein-tagged bulge-deleted TAR RNA, room temperature
# Method: as §1, §2, §3
Substance,Kd (wild-type TAR RNA) [µM],specificity for wild-type TAR over bulgeless TAR (in words) (wild-type TAR RNA),Binding Specificity (Kd (mutTAR)/Kd (wtTAR)) (wild-type TAR RNA),Kd [1] [µM],affinity for TAR RNA (in words) (wild-type TAR RNA),affinity for wild-type TAR lower than that of α-peptide 3 (wild-type TAR RNA; compared to α-peptide 3),Binding Specificity (Kd (mutTAR)/Kd (wtTAR)) (wild-type TAR RNA; listed as β-peptide 1),dissociation constant ratio (Krel) relative to α-peptide 3 (wild-type TAR RNA; value above 1.0 denotes stronger binding of the analogue relative to the native peptide),affinity for bulgeless TAR reduced compared to α-peptide 3 ([1]; compared to α-peptide 3)
"N-Tyr-Gly-Arg-Lys-Lys-Arg-Arg-Gln-Arg-Arg-Arg [α-TatR 3, reference compound]",0.0018 ± 0.0005,little specificity,1,0.0011 ± 0.0002,–,–,–,–,–
"β-amino acid oligomer (β-peptide) analogue of Tat 47-57 (YGRKKRRQRRR, SEQ ID NO:1) [wt β-peptide 1]",0.028 ± 0.004,enhanced specificity,10,0.281 ± 0.068,nanomolar affinity,roughly 15 fold,about 10,0.072,more than two orders of magnitude
β-peptide in which all arginine side chains have been replaced by lysine side chains (YGKKKKKQKKK; SEQ ID NO:2) [mut β-peptide 2],0.016 ± 0.002,less specificity,2,0.033 ± 0.002,high affinity,–,–,–,–
